# Assay results taken from patent US20130253047A1 (priority 2006, published 2013).
# Tested on: H5N1
# Assay type: cell-based
row,Molecule,inhibition of H5N1 infections in mammalian cells by blocking the attachment and entry into the cells
1,O=C(O[C@@H]1Cc2c(O)cc(O)cc2O[C@@H]1c1cc(=O)c(O)c2c(O)c(O)cc([C@H]3Oc4cc(O)cc(O)c4C[C@H]3O)c2c1)c1cc(O)c(O)c(O)c1 [theaflavin-3 gallate],inhibits H5N1 infections in mammalian cells
2,O=c1c(O)cc([C@H]2Oc3cc(O)cc(O)c3C[C@H]2O)cc2c([C@H]3Oc4cc(O)cc(O)c4C[C@H]3O)cc(O)c(O)c12 [theaflavin],inhibits H5N1 infections in mammalian cells
3,(−)-epigallocatechin gallate,inhibits H5N1 infections in mammalian cells
4,"theaflavin-3,3′-digallate",inhibits H5N1 infections in mammalian cells
5,theaflavin-3′-gallate,inhibits H5N1 infections in mammalian cells
